Reference: PubChem BioAssay AID2060508 (Molecular Pharmacology Branch, DTP, NCI, 2025)

What follows are molecules tested on 454973-116-R2-J3-PDC spheroids, viability, % test/control (assay: Anticancer human tumor 454973-116-R2-J3-PDC patient-derived pancreatic carcinoma cell line growth inhibition [GQUAD]). Details: second compound 1 µM; first compound 0.1 µM; hits give low values; spheroids with HUVEC and MSC.
Outline: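 Tumor cells were grown as complex spheroids with HUVEC endothelial cells and mesenchymal stem cells as stroma. G-quadruplex stabilizers were combined with targeted agents over half-log dilutions from near the clinical Cmax, or from 10 microM.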
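Further: spheroids exposed to compounds for seven days; 100% = DMSO vehicle control viability.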

| Compound | viability, T/C [%] |
| --- | --- |
| COc1cccc2c1C(=O)c1c(O)c3c(c(O)c1C2=O)CC(O)(C(=O)CO)CC3OC1CC(N)C(O)C(C)O1 (stereo unspecified) + Cc1[nH]c2ccc(F)cc2c1-c1nc2c3cccnc3c3ncccc3c2[nH]1 | 61.4 |
| Cc1cccc(N(C)C(=O)C2C(O)CCN2c2nc(C)cc(C(F)(F)F)c2C#N)c1 (stereo unspecified) + Cc1[nH]c2ccc(F)cc2c1-c1nc2c3cccnc3c3ncccc3c2[nH]1 | 105 |

Same assay, conditions: second compound 1 µM; first compound 0.316 µM; hits give low values; spheroids with HUVEC and MSC

| Compound | viability, T/C [%] |
| --- | --- |
| C=CC(=O)N1CCN(c2nc(=O)n(-c3c(C)ccnc3C(C)C)c3nc(-c4c(O)cccc4F)c(F)cc23)C(C)C1 (stereo unspecified) + Cc1[nH]c2ccc(F)cc2c1-c1nc2c3cccnc3c3ncccc3c2[nH]1 | 112 |
| CCc1c2c(nc3ccc(O)cc13)-c1cc3c(c(=O)n1C2)COC(=O)[C@]3(O)CC + Cc1[nH]c2ccc(F)cc2c1-c1nc2c3cccnc3c3ncccc3c2[nH]1 | 5.39 |
| COc1cc(C2c3cc4c(cc3C(OC3OC5COC(C)OC5C(O)C3O)C3COC(=O)C23)OCO4)cc(OC)c1O (stereo unspecified) + Cc1[nH]c2ccc(F)cc2c1-c1nc2c3cccnc3c3ncccc3c2[nH]1 | 86.2 |
| COc1cccc2c1C(=O)c1c(O)c3c(c(O)c1C2=O)CC(O)(C(=O)CO)CC3OC1CC(N)C(O)C(C)O1 (stereo unspecified) + Cc1[nH]c2ccc(F)cc2c1-c1nc2c3cccnc3c3ncccc3c2[nH]1 | 24.3 |
| Cc1cccc(N(C)C(=O)C2C(O)CCN2c2nc(C)cc(C(F)(F)F)c2C#N)c1 (stereo unspecified) + Cc1[nH]c2ccc(F)cc2c1-c1nc2c3cccnc3c3ncccc3c2[nH]1 | 113 |

Same assay, conditions: second compound 1 µM; first compound 1 µM; hits give low values; spheroids with HUVEC and MSC

| Compound | viability, T/C [%] |
| --- | --- |
| C=CC(=O)N1CCN(c2nc(=O)n(-c3c(C)ccnc3C(C)C)c3nc(-c4c(O)cccc4F)c(F)cc23)C(C)C1 (stereo unspecified) + Cc1[nH]c2ccc(F)cc2c1-c1nc2c3cccnc3c3ncccc3c2[nH]1 | 103 |
| COc1cc(C2c3cc4c(cc3C(OC3OC5COC(C)OC5C(O)C3O)C3COC(=O)C23)OCO4)cc(OC)c1O (stereo unspecified) + Cc1[nH]c2ccc(F)cc2c1-c1nc2c3cccnc3c3ncccc3c2[nH]1 | 53.5 |
| COc1cccc2c1C(=O)c1c(O)c3c(c(O)c1C2=O)CC(O)(C(=O)CO)CC3OC1CC(N)C(O)C(C)O1 (stereo unspecified) + Cc1[nH]c2ccc(F)cc2c1-c1nc2c3cccnc3c3ncccc3c2[nH]1 | 26.2 |
| Cc1cccc(N(C)C(=O)C2C(O)CCN2c2nc(C)cc(C(F)(F)F)c2C#N)c1 (stereo unspecified) + Cc1[nH]c2ccc(F)cc2c1-c1nc2c3cccnc3c3ncccc3c2[nH]1 | 107 |

Same assay, conditions: second compound 1 µM; first compound 3.16 µM; hits give low values; spheroids with HUVEC and MSC

| Compound | viability, T/C [%] |
| --- | --- |
| C=CC(=O)N1CCN(c2nc(=O)n(-c3c(C)ccnc3C(C)C)c3nc(-c4c(O)cccc4F)c(F)cc23)C(C)C1 (stereo unspecified) + Cc1[nH]c2ccc(F)cc2c1-c1nc2c3cccnc3c3ncccc3c2[nH]1 | 114 |
| COc1cc(C2c3cc4c(cc3C(OC3OC5COC(C)OC5C(O)C3O)C3COC(=O)C23)OCO4)cc(OC)c1O (stereo unspecified) + Cc1[nH]c2ccc(F)cc2c1-c1nc2c3cccnc3c3ncccc3c2[nH]1 | 21.2 |
| COc1cccc2c1C(=O)c1c(O)c3c(c(O)c1C2=O)CC(O)(C(=O)CO)CC3OC1CC(N)C(O)C(C)O1 (stereo unspecified) + Cc1[nH]c2ccc(F)cc2c1-c1nc2c3cccnc3c3ncccc3c2[nH]1 | 11.1 |
| Cc1cccc(N(C)C(=O)C2C(O)CCN2c2nc(C)cc(C(F)(F)F)c2C#N)c1 (stereo unspecified) + Cc1[nH]c2ccc(F)cc2c1-c1nc2c3cccnc3c3ncccc3c2[nH]1 | 112 |

Same assay, conditions: second compound 1 µM; first compound 10 µM; hits give low values; spheroids with HUVEC and MSC

| Compound | viability, T/C [%] |
| --- | --- |
| C=CC(=O)N1CCN(c2nc(=O)n(-c3c(C)ccnc3C(C)C)c3nc(-c4c(O)cccc4F)c(F)cc23)C(C)C1 (stereo unspecified) + Cc1[nH]c2ccc(F)cc2c1-c1nc2c3cccnc3c3ncccc3c2[nH]1 | 123 |
| COc1cc(C2c3cc4c(cc3C(OC3OC5COC(C)OC5C(O)C3O)C3COC(=O)C23)OCO4)cc(OC)c1O (stereo unspecified) + Cc1[nH]c2ccc(F)cc2c1-c1nc2c3cccnc3c3ncccc3c2[nH]1 | 13.5 |
| COc1cccc2c1C(=O)c1c(O)c3c(c(O)c1C2=O)CC(O)(C(=O)CO)CC3OC1CC(N)C(O)C(C)O1 (stereo unspecified) + Cc1[nH]c2ccc(F)cc2c1-c1nc2c3cccnc3c3ncccc3c2[nH]1 | 0.62 |
| Cc1cccc(N(C)C(=O)C2C(O)CCN2c2nc(C)cc(C(F)(F)F)c2C#N)c1 (stereo unspecified) + Cc1[nH]c2ccc(F)cc2c1-c1nc2c3cccnc3c3ncccc3c2[nH]1 | 106 |

Same assay, conditions: second compound 3.16 µM; first compound 0.000999 µM; hits give low values; spheroids with HUVEC and MSC

| Compound | viability, T/C [%] |
| --- | --- |
| CCc1c2c(nc3ccc(O)cc13)-c1cc3c(c(=O)n1C2)COC(=O)[C@]3(O)CC + Cc1[nH]c2ccc(F)cc2c1-c1nc2c3cccnc3c3ncccc3c2[nH]1 | 59.1 |

Same assay, conditions: second compound 3.16 µM; first compound 0.00316 µM; hits give low values; spheroids with HUVEC and MSC

| Compound | viability, T/C [%] |
| --- | --- |
| CCc1c2c(nc3ccc(O)cc13)-c1cc3c(c(=O)n1C2)COC(=O)[C@]3(O)CC + Cc1[nH]c2ccc(F)cc2c1-c1nc2c3cccnc3c3ncccc3c2[nH]1 | 21.1 |

Same assay, conditions: second compound 3.16 µM; first compound 0.00999 µM; hits give low values; spheroids with HUVEC and MSC

| Compound | viability, T/C [%] |
| --- | --- |
| CCc1c2c(nc3ccc(O)cc13)-c1cc3c(c(=O)n1C2)COC(=O)[C@]3(O)CC + Cc1[nH]c2ccc(F)cc2c1-c1nc2c3cccnc3c3ncccc3c2[nH]1 | 21.8 |

Same assay, conditions: second compound 3.16 µM; first compound 0.0316 µM; hits give low values; spheroids with HUVEC and MSC

| Compound | viability, T/C [%] |
| --- | --- |
| C=CC(=O)N1CCN(c2nc(=O)n(-c3c(C)ccnc3C(C)C)c3nc(-c4c(O)cccc4F)c(F)cc23)C(C)C1 (stereo unspecified) + Cc1[nH]c2ccc(F)cc2c1-c1nc2c3cccnc3c3ncccc3c2[nH]1 | 96.2 |
| CCc1c2c(nc3ccc(O)cc13)-c1cc3c(c(=O)n1C2)COC(=O)[C@]3(O)CC + Cc1[nH]c2ccc(F)cc2c1-c1nc2c3cccnc3c3ncccc3c2[nH]1 | 15.2 |
| COc1cc(C2c3cc4c(cc3C(OC3OC5COC(C)OC5C(O)C3O)C3COC(=O)C23)OCO4)cc(OC)c1O (stereo unspecified) + Cc1[nH]c2ccc(F)cc2c1-c1nc2c3cccnc3c3ncccc3c2[nH]1 | 115 |
| COc1cccc2c1C(=O)c1c(O)c3c(c(O)c1C2=O)CC(O)(C(=O)CO)CC3OC1CC(N)C(O)C(C)O1 (stereo unspecified) + Cc1[nH]c2ccc(F)cc2c1-c1nc2c3cccnc3c3ncccc3c2[nH]1 | 93.1 |
